According to ChEMBL document CHEMBL2440027, “Further SAR studies on bicyclic basic merbarone analogues as potent antiproliferative agents” (Bioorg Med Chem, 2013):

Columns and labels:
[1] = tested on: MT4; test: Cytotoxicity against human MT4 cells; assay type: functional, cell-based
[2] = tested on: MCF7; test: Cytotoxicity against human MCF7 cells; assay type: functional, cell-based
[3] = tested on: HeLa; test: Cytotoxicity against human HeLa cells; assay type: functional, cell-based
[4] = biological target: DNA topoisomerase 2-alpha (Homo sapiens, UniProt P11388); test: Inhibition of human topoisomerase 2alpha-mediated relaxation of supercoiled pBR322 after 1 hr by ethidium bromide staining
Sequence of DNA topoisomerase 2-alpha (P11388 whole entry): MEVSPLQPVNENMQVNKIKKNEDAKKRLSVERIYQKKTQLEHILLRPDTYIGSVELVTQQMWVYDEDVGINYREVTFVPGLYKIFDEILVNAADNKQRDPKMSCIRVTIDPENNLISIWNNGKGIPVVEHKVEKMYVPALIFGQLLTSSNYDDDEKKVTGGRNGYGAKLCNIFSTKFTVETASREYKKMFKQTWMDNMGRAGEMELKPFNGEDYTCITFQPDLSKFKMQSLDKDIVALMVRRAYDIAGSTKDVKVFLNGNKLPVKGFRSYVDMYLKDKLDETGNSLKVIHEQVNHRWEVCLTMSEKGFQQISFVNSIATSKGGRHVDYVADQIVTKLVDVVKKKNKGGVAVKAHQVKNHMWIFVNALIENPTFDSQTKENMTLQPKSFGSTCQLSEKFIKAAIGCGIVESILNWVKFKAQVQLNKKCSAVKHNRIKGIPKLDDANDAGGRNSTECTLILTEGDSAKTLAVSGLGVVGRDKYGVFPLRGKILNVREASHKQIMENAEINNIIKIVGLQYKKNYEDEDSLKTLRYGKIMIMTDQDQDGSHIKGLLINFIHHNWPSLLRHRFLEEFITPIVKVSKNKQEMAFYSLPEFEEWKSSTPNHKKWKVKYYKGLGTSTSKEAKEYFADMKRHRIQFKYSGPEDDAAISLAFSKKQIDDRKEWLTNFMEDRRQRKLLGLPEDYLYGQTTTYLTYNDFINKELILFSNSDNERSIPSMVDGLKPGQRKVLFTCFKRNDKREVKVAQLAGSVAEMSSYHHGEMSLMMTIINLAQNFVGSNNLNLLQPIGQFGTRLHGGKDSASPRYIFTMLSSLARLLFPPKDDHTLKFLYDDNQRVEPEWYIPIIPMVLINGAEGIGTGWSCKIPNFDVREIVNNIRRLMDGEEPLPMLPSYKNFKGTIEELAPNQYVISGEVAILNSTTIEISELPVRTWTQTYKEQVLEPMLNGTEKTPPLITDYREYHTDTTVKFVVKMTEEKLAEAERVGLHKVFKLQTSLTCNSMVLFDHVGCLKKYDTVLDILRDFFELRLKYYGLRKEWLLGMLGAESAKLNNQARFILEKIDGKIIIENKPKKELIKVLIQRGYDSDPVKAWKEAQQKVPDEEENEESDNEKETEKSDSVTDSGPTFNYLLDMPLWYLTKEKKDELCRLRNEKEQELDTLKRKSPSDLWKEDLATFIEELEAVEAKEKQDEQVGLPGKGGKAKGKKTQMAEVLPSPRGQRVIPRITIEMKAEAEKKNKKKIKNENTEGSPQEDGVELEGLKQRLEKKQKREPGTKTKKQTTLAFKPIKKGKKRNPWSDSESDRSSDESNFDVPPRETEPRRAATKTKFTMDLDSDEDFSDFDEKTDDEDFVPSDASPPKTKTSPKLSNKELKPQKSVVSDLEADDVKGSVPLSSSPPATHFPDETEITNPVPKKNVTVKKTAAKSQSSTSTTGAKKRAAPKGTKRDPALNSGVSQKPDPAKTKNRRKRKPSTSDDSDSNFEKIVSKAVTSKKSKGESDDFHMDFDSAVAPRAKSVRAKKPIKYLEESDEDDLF

| Structure (SMILES) | IC50 [1] [µM] | IC50 [2] [µM] | IC50 ([3]; Homo sapiens, HeLa) [µM] | IC50 [4] [µM] | IC50 ([3]; hela) [µM] |
| --- | --- | --- | --- | --- | --- |
| CCN(CC)CCSc1nc2c(c(=N)n1-c1ccccc1)c(=S)n(-c1ccccc1)c(=S)n2-c1ccccc1 | 3.3 |  |  |  |  |
| CN1CCN(c2nc3c(c(=N)n2-c2ccccc2)c(=S)n(-c2ccccc2)c(=S)n3-c2ccccc2)CC1 | > 100 | > 50 | > 50 |  |  |
| N=c1c2c(=S)n(-c3ccccc3)c(=S)n(-c3ccccc3)c2nc(NNc2ccccc2)n1-c1ccccc1 | > 100 |  |  |  |  |
| CCN(CC)CCNc1nc2c(c(=N)n1-c1ccccc1)c(=S)n(-c1ccccc1)c(=S)n2-c1ccccc1 | 2.5 | 11.1 | 16.9 | > 100 |  |
| N=c1c2c(=S)n(-c3ccccc3)c(=S)n(-c3ccccc3)c2nc(SCCN2CCCCC2)n1-c1ccccc1 | 3.6 |  |  |  |  |
| N=c1c2c(=S)n(-c3ccccc3)c(=S)n(-c3ccccc3)c2nc(NCCc2ccc(Cl)cc2)n1-c1ccccc1 [listing 1 of 2 here] |  | 25.6 | 5.6 | 2 |  |
| N=c1c2c(=S)n(-c3ccccc3)c(=S)n(-c3ccccc3)c2nc(NCc2cccnc2)n1-c1ccccc1 [listing 1 of 2 here] |  | 24.3 | 14.6 | 3 |  |
| CN1CCN(CCCNc2nc3c(c(=N)n2-c2ccccc2)c(=S)n(-c2ccccc2)c(=S)n3-c2ccccc2)CC1 [listing 1 of 2 here] |  | 5.7 | 8.5 | > 35 |  |
| N=c1c2c(=S)n(-c3ccccc3)c(=S)n(-c3ccccc3)c2nc(NCCN2CCCCC2)n1-c1ccccc1 [listing 1 of 2 here] |  | 26.7 | 5.2 | 3 |  |
| CCCCN(CCCC)CCCNc1nc2c(c(=N)n1-c1ccccc1)c(=S)n(-c1ccccc1)c(=S)n2-c1ccccc1 |  | < 1 | 2 | > 32 |  |
| CN(C)CCCNc1nc2c(c(=N)n1-c1ccccc1)c(=S)n(-c1ccccc1)c(=S)n2-c1ccccc1 | 1.7 | 5.5 | 7.8 | > 100 |  |
| N=c1c2c(=S)n(-c3ccccc3)c(=S)n(-c3ccccc3)c2nc(NCCN2CCCCC2)n1-c1ccccc1 [listing 2 of 2 here] | 1.7 |  |  |  |  |
| CN1CCN(CCCNc2nc3c(c(=N)n2-c2ccccc2)c(=S)n(-c2ccccc2)c(=S)n3-c2ccccc2)CC1 [listing 2 of 2 here] | 2 |  |  |  |  |
| N=c1c2c(=S)n(-c3ccccc3)c(=S)n(-c3ccccc3)c2nc(NCc2ccccn2)n1-c1ccccc1 | 7 | > 50 | > 50 | > 100 |  |
| N=c1c2c(=S)n(-c3ccccc3)c(=S)n(-c3ccccc3)c2nc(NCc2cccnc2)n1-c1ccccc1 [listing 2 of 2 here] | > 100 |  |  | 3 | 12.6 |
| N=c1c2c(=S)n(-c3ccccc3)c(=S)n(-c3ccccc3)c2nc(NCCc2ccc(Cl)cc2)n1-c1ccccc1 [listing 2 of 2 here] | 2.4 |  |  | 2 | 5.9 |
| N=c1c2c(=S)n(-c3ccccc3)c(=S)n(-c3ccccc3)c2nc(NCCc2ccccn2)n1-c1ccccc1 | 8 | 17.3 | 10.5 | > 100 |  |
| N=c1c2c(=S)n(-c3ccccc3)c(=S)n(-c3ccccc3)c2nc(NCCc2ccncc2)n1-c1ccccc1 | 16 | 17.8 | 15.4 | > 100 |  |
| N=c1c2c(=S)n(-c3ccccc3)c(=S)n(-c3ccccc3)c2nc(NCCCn2ccnc2)n1-c1ccccc1 | 8 | > 100 | > 100 |  |  |
| O=C1NC(=S)NC(=O)C1C(=O)Nc1ccccc1 [MERBARONE] | 12 | 61.6 | 43.8 | 32 |  |
